Patent US8148388B2, “2,4 (4,6) pyrimidine derivatives” (Janssen Pharmaceutica, N.V., priority 2004, dated 2012)

What was measured:
Format in all cases: biochemical
Fms (h) = Fms (h) (Homo sapiens, UniProt P07333); assay: Fms human kinase assay (glass-fiber filter); conditions: test concentration of 10^−6M; for inhibition at 1 µM: read-out: C7 score (inhibition of Fms human)
Method in brief: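 Radiometric filter-binding assay: Fms (5-10 mU) with 250 μM peptide substrate and [γ-33P]ATP in 8 mM MOPS pH 7.0, 10 mM Mg acetate, 40 min at room temperature. Reaction stopped with phosphoric acid; substrate-bound 33P counted on P30 filtermat.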

Flt3 (h) = Flt3 (h) (Homo sapiens, UniProt P36888); assay: Flt3 human kinase assay (glass-fiber filter); conditions: test concentration of 10^−6M; for inhibition at 1 µM: read-out: C6 score (inhibition of Flt3 human)
Flt3 (h), sequence (P36888 27-993): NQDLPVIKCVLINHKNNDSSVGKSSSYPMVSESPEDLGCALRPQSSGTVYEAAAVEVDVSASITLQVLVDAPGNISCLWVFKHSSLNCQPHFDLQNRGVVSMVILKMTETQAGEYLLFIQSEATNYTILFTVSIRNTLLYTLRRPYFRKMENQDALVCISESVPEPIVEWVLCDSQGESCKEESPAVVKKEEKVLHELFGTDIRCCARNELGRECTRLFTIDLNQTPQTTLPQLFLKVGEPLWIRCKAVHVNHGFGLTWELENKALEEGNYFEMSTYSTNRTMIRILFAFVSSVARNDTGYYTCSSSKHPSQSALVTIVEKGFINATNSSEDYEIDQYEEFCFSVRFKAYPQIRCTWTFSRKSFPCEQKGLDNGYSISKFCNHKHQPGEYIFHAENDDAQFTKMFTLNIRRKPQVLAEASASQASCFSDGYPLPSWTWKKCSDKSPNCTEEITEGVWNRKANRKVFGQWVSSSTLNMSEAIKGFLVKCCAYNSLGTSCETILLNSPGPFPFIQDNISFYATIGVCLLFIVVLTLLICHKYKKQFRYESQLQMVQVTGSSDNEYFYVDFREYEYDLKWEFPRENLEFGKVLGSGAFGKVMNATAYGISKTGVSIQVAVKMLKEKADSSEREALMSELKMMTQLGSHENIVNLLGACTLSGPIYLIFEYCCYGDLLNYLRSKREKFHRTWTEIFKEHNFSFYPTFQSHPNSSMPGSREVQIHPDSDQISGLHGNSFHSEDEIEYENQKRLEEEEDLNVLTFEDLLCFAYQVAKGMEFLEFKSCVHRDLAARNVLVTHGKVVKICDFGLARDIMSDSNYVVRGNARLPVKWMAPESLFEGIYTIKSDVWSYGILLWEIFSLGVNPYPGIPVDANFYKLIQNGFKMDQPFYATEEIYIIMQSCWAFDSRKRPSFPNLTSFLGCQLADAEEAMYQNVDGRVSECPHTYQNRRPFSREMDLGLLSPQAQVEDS
Method in brief: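 Human Flt3 (5-10 mU) with 50 μM peptide substrate in 8 mM MOPS pH 7.0, 0.2 mM EDTA, 10 mM Mg acetate and [γ-33P]ATP (concentration as required), 40 min at room temperature. Reaction stopped with phosphoric acid; substrate 33P incorporation counted on P30 glass-fiber filter.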

Lck (h) = Lck (h) (Homo sapiens, UniProt P06239); assay: Lck human kinase assay (glass-fiber filter); conditions: test concentration of 10^−6M; for inhibition at 1 µM: read-out: C9 score (inhibition of Lck human)
Lck (h), sequence (P06239 whole entry): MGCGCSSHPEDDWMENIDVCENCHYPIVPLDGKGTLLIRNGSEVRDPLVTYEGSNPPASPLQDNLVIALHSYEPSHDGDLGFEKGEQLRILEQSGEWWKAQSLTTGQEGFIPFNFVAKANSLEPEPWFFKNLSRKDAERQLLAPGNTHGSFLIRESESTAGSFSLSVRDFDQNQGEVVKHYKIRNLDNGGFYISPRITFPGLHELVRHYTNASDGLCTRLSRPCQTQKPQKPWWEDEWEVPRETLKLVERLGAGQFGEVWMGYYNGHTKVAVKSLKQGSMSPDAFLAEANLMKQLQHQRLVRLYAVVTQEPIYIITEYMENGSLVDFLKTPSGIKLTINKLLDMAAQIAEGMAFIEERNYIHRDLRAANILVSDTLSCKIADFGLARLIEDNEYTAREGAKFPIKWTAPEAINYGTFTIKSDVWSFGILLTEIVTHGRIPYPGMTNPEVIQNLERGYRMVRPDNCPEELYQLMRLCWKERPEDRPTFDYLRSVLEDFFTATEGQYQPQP
Method in brief: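 Kinase activity measured as transfer of (^33P) from radiolabeled MgATP to substrate, captured on P30 glass-fiber filtermat, washed in 75 mM phosphoric acid and methanol, then scintillation counted.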

EGFR (h) = EGFR (h) (Homo sapiens, UniProt P00533); assay: EGFR human kinase assay (glass-fiber filter); conditions: test concentration of 10^−6M; for inhibition at 1 µM: read-out: C4 score (inhibition of EGFR human)
Method in brief: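 Human EGFR (5-10 mU) phosphorylated 0.1 mg/ml poly(Glu, Tyr) 4:1 in 8 mM MOPS pH 7.0, 0.2 mM EDTA, 10 mM MnCl2, 10 mM MgAcetate with [γ-33P]ATP at unspecified concentration. Incubation lasted 40 minutes at room temperature, was stopped with phosphoric acid, and filter-bound 33P was counted by scintillation.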

Fms (h), sequence (P07333 20-972): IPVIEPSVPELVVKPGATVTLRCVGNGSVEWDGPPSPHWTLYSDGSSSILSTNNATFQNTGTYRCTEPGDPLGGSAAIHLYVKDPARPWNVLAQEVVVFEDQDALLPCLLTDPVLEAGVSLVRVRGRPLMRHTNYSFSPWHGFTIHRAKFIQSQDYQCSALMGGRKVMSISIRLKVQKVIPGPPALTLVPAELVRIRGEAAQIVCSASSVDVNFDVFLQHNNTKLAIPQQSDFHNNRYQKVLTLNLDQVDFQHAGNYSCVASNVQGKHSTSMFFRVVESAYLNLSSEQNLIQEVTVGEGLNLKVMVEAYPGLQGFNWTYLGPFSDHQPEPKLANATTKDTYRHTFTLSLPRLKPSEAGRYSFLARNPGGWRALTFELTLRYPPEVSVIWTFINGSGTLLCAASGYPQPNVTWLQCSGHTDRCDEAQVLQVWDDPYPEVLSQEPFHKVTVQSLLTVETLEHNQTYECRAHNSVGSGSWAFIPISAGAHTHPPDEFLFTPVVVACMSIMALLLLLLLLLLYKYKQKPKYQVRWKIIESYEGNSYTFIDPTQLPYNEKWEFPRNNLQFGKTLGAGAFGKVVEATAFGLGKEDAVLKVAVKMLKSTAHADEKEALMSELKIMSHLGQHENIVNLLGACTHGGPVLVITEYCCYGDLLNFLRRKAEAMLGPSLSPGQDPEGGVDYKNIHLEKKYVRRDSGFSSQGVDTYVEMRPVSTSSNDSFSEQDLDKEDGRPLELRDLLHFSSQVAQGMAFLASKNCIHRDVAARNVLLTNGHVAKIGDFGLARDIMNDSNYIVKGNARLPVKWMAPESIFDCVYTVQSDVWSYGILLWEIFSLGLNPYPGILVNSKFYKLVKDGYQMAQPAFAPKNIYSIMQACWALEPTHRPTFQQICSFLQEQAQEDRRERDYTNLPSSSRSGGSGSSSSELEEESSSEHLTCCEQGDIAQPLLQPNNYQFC

| Compound | C7 score (inhibition of Fms human) (Fms (h)) | C6 score (inhibition of Flt3 human) (Flt3 (h)) | C9 score (inhibition of Lck human) (Lck (h)) | C4 score (inhibition of EGFR human) (EGFR (h)) | inhibition at 1 µM (Fms (h)) [%] | inhibition at 1 µM (Flt3 (h)) [%] | inhibition at 1 µM (Lck (h)) [%] | inhibition at 1 µM (EGFR (h)) [%] |
| --- | --- | --- | --- | --- | --- | --- | --- | --- |
| 1H,7H-2,6: 12,8-dimetheno-14H-13,19,1,3,5,7-benzodioxatetraazacycloheneicosine, 22-bromo-15,16,17,18-tetrahydro-11-methoxy- [Compound 35] | 2 (Score 2=30-60% inhibition) | 2 (Score 2=30-60% inhibition) | 2 (Score 2=30-60% inhibition) | 2 (Score 2=30-60% inhibition) |  |  |  |  |
| 12,8-metheno-6,2-nitrilo-7H-13,1,5,7,16,19-benzoxapentaazacyclodocosine-3-carbonitrile, 23-chloro-1,14,15,16,17,18,19,20-octahydro-11-methoxy-19-methyl-17-oxo- [Compound 32] | 1 (Score 1=10-30% inhibition) | 4 (Score 4=>80% inhibition) | 4 (Score 4=>80% inhibition) | 4 (Score 4=>80% inhibition) |  |  |  |  |
| N#Cc1cnc2nc1Nc1cccc(c1)OCC(=O)NCCCOc1cccc(c1)N2 [Compound 25, 14,21-dioxa-2,4,8,17,28-pentaazatetracyclo[20.3.1.1~3,7~.1~9,13~]octacosa-1(26),3,5,7(28),9,11,13(27),22,24-nonaene-6-carbonitrile, 16-oxo-] |  |  |  |  | 30 to 60 | > 80 | 30 to 60 | 10 to 30 |
| N#Cc1cnc2nc1Nc1cccc(c1)OCC(=O)NCCCCOc1cccc(c1)N2 [Compound 26, 14,22-dioxa-2,4,8,17,29-pentaazatetracyclo[21.3.1.1~3,7~.1~9,13~]nonacosa-1(27),3,5,7(29),9,11,13(28),23,25-nonaene-6-carbonitrile, 16-oxo-] |  |  |  |  | 30 to 60 | 60 to 80 | 10 to 30 | 10 to 30 |
| N#Cc1cnc2nc1Nc1cccc(c1)OCCCNC(=O)COc1cccc(c1)N2 [Compound 28, 14,21-dioxa-2,4,8,18,28-pentaazatetracyclo[20.3.1.1~3,7~.1~9,13~]octacosa-1(26),3,5,7(28),9,11,13(27),22,24-nonaene-6-carbonitrile, 19-oxo-] |  |  |  |  | 30 to 60 | 60 to 80 | 30 to 60 |  |
| COc1ccc2c(c1)OCCCCCCOc1ccc(Cl)cc1Nc1cc(ncn1)N2 [Compound 34, 11H-6,10-metheno-5H-dibenzo[b,k][1,13,4,6,8,10]dioxatetraazacyclononadecine, 13-chloro-17,18,19,20,21,22-hexahydro-2-methoxy-] |  |  |  |  | 10 to 30 | 10 to 30 | 10 to 30 | 30 to 60 |
| COc1ccc2cc1OCCCCCCOc1ccc(Br)cc1Nc1cc(ncn1)N2 [Compound 36, 1H,7H-2,6: 12,8-dimetheno-13,20,1,3,5,7-benzodioxatetraazacyclodocosine, 23-bromo-14,15,16,17,18,19-hexahydro-11-methoxy-] | 1 (Score 1=10-30% inhibition) | 1 (Score 1=10-30% inhibition) | 2 (Score 2=30-60% inhibition) | 4 (Score 4=>80% inhibition) |  |  |  |  |
| COc1ccc2cc1OCCCCCCCOc1ccc(Br)cc1Nc1cc(ncn1)N2 [Compound 37, 1H,7H-2,6: 12,8-dimetheno-14H-13,21,1,3,5,7-benzodioxatetraazacyclotricosine, 24-bromo-15,16,17,18,19,20-hexahydro-11-methoxy-] | 1 (Score 1=10-30% inhibition) |  | 2 (Score 2=30-60% inhibition) | 3 (Score 3=60-80% inhibition) |  |  |  |  |
| COc1ccc2cc1OCCNC(=O)CNC(=O)Cc1ccc(Cl)cc1Nc1cc(ncn1)N2 [Compound 103, 1H,7H-6,2:12,8-dimetheno-13,1,3,5,7,16,19-benzoxahexaazacyclotricosine-17,20(14H)-dione, 24-chloro-15,16,18,19,21-pentahydro-11-methoxy-] |  |  |  |  |  |  | > 80 | > 80 |
| COc1ccc2cc1OCCCNC(=O)C(C)(C)NC(=O)Cc1ccc(Cl)cc1Nc1cc(ncn1)N2 [Compound 105, 6,2:8,12-dimetheno-7H-13,1,3,5,7,17,20-benzoxahexaazacyclotetracosine-18,21-dione, 25-chloro-1,14,15,16,17,19,20,22-octahydro-11-methoxy-19,19-dimethyl-] |  |  |  |  | 10 to 30 |  | > 80 | > 80 |
| CC1(C)NC(=O)Cc2ccc(Cl)cc2Nc2cc(ncn2)Nc2ccc(OCCCN3CCOCC3)c(c2)OCCNC1=O [Compound 106, 1H,7H-6,2:8,12-dimetheno-13,1,3,5,7,16,19-benzoxahexaazacyclotricosine-17,20(14H)-dione, 24-chloro-15,16,18,19,21-pentahydro-18,18-dimethyl-11-[3-(4-morpholinyl)propoxy]-] |  |  |  |  | 10 to 30 | 10 to 30 | > 80 | > 80 |
